Experiments:
HCV [1] = conditions: clinical trials, at 24 h following a single dose of 10 mg; cited from earlier work
HCV [2] = conditions: cited from earlier work
[3] = test system: subgenomic HCV 1b replicon; assay: HCV RNA replication in Huh7 cells containing a subgenomic HCV 1b replicon; assay type: cell-based, HCV genotype 1b; conditions: for decrease of activity on introduction of torsion angle in the linker: one range stated for the group of compounds

| Compound | decrease of activity on introduction of torsion angle in the linker ([3]; HCV 1b replicon) | anti-HCV activity (in words) ([3]; HCV 1b replicon) | further results |
| --- | --- | --- | --- |
| COC(=O)N[C@H](C(=O)N1CCC[C@H]1c1ncc(-c2ccc(-c3ccc(-c4cnc([C@@H]5CCCN5C(=O)[C@@H](NC(=O)OC)C(C)C)[nH]4)cc3)cc2)[nH]1)C(C)C [BMS-790052] |  |  | reduction in HCV RNA (HCV [1]): over 3 log10 IU/mL; median effective antiviral concentration (EC50) in vitro (HCV [2]): picomolar range |
| COC(=O)N[C@H](C(=O)N1CCC[C@H]1c1ncc(-c2ccc(Oc3ccc(-c4cnc([C@@H]5CCCN5C(=O)[C@@H](NC(=O)OC)C(C)C)[nH]4)cc3)cc2)[nH]1)C(C)C [Compound 5b] | 16- to 15,000 fold |  |  |
| COC(=O)N[C@H](C(=O)N1CCC[C@H]1c1ncc(-c2ccc(NS(=O)(=O)c3ccc(-c4cnc([C@@H]5CCCN5C(=O)[C@@H](NC(=O)OC)C(C)C)[nH]4)cc3)cc2)[nH]1)C(C)C [Compound 5c] | 16- to 15,000 fold |  |  |
| COC(=O)N[C@H](C(=O)N1CCC[C@H]1c1ncc(-c2ccc(-c3ccc(-c4cnc([C@@H]5CCCN5C(=O)[C@@H](NC(=O)OC)C(C)C)[nH]4)s3)cc2)[nH]1)C(C)C [Compound 5d] |  | almost complete loss of anti-HCV activity |  |
| COC(=O)N[C@H](C(=O)N1CCC[C@H]1c1ncc(-c2ccc(-c3ccc(-c4ccc(-c5cnc([C@@H]6CCCN6C(=O)[C@@H](NC(=O)OC)C(C)C)[nH]5)cc4)cc3)cc2)[nH]1)C(C)C [Compound 11a] |  | low picomolar range | therapeutic index CC50/EC50 ([3]; HCV replicon assay): over four million |
| COC(=O)N[C@H](C(=O)N1CCC[C@H]1c1ncc(-c2ccc(-c3ccc(-c4ccc(-c5cnc([C@@H]6CCCN6C(=O)[C@@H](NC(=O)OC)C(C)C)[nH]5)cc4)nc3)cc2)[nH]1)C(C)C [Compound 11b] |  | low picomolar range |  |
| COC(=O)N[C@H](C(=O)N1CCC[C@H]1c1ncc(-c2ccc(-c3cccc(-c4ccc(-c5cnc([C@@H]6CCCN6C(=O)[C@@H](NC(=O)OC)C(C)C)[nH]5)cc4)c3)cc2)[nH]1)C(C)C [Compound 11c] | 16- to 15,000 fold |  |  |
| COC(=O)N[C@H](C(=O)N1CCC[C@H]1c1ncc(-c2ccc(-c3ccc(-c4ccc(-c5cnc([C@@H]6CCCN6C(=O)[C@@H](NC(=O)OC)C(C)C)[nH]5)cc4)s3)cc2)[nH]1)C(C)C [Compound 11d] | 16- to 15,000 fold |  |  |
| COC(=O)N[C@H](C(=O)N1CCC[C@H]1c1ncc(-c2ccc(-c3ccc(-c4ccc(-c5ccc(-c6cnc([C@@H]7CCCN7C(=O)[C@@H](NC(=O)OC)C(C)C)[nH]6)cc5)cc4)cc3)cc2)[nH]1)C(C)C [Compound 11e] |  |  | loss of activity at the EC50 level compared to BMS-790052 ([3]; HCV 1b replicon): 37 fold |
| COC(=O)N[C@H](C(=O)N1CCC[C@H]1c1ncc(-c2ccc(-c3cn(-c4ccc(-c5cnc([C@@H]6CCCN6C(=O)[C@@H](NC(=O)OC)C(C)C)[nH]5)cc4)nn3)cc2)[nH]1)C(C)C [Compound 17] | 16- to 15,000 fold |  |  |

Reference: article PMC7732024 (Bioorganic & medicinal chemistry letters, 2012)
